Consider three compounds from patent publication US20250275959A1, “COMPOUNDS AND METHODS OF THEIR USE” (LEXICON PHARMACEUTICALS, INC., priority 2024, published 2025).

Usually IC50 stands for the concentration that inhibits the measured activity by half.

Sequence of hACSL5 (Q9ULC5 whole entry): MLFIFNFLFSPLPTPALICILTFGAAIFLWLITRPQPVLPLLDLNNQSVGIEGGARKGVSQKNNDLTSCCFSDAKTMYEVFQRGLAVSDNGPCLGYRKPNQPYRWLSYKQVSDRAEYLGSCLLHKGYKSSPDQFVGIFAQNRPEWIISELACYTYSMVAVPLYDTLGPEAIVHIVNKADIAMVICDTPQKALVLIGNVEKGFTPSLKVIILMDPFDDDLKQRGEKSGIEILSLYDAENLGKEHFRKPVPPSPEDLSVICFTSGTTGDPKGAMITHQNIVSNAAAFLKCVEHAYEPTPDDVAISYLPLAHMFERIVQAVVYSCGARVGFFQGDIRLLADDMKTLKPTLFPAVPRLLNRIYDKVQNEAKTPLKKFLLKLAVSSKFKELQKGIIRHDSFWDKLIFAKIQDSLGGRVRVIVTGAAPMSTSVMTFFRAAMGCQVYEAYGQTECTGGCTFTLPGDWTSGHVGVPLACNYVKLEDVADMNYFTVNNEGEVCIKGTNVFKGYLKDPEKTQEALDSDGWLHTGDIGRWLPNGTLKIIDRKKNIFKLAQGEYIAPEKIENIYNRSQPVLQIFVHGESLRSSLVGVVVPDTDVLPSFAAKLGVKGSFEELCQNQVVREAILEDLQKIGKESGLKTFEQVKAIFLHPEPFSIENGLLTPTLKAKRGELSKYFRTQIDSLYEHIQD

The target in the experiment is hACSL5 (Homo sapiens (Human), UniProt Q9ULC5). In words: Cell-based assay (CBA) with B12FA in hACSL5-transfected Expi293F / FlpIn TRex293 cells. The note with it: hACSL5-expressing cells. The essentials:
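hACSL5-expressing Expi293F or tetracycline-induced FlpIn TRex293 cells, serum- and glucose-starved 1 h, then treated 3 h with serially diluted compound plus 20 µM B12FA. After fixation, 630/520 nm emission ratio (ex 485 nm) gave % inhibition versus no-inhibitor and 10 µM compound/non-induced controls; IC50 by Hill fit.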
Regarding `CC[C@@H](Oc1ccc(C(=O)NS(=O)(=O)c2ccc(OCCN(C)C)cc2)c(F)c1F)c1ccc(OCC2CC2)cn1` [Compound B, (R)-4-(1-(5-(cyclopropylmethoxy)pyridin-2-yl)propoxy)-N-((4-(2-(dimethylamino)ethoxy)phenyl)sulfonyl)-2,3-difluorobenzamide], the IC50 is 100 to 500 nM.
Under `CC[C@@H](Oc1ccc(C(=O)NS(=O)(=O)N2CCC(OCCN(C)C)CC2)c(F)c1F)c1ccc(Oc2ccccn2)cn1` [Compound C, (R)-N-((4-(2-(dimethylamino)ethoxy)piperidin-1-yl)sulfonyl)-2,3-difluoro-4-(1-(5-(pyridin-2-yloxy)pyridin-2-yl)propoxy)benzamide] stands 100 to 500 nM.
Under `CC[C@@H](Oc1ccc(C(=O)NS(=O)(=O)N2CCN(C)CC2)c(F)c1F)c1ccc(Oc2ccccn2)cn1` [Compound D, (R)-2,3-difluoro-N-((4-methylpiperazin-1-yl)sulfonyl)-4-(1-(5-(pyridin-2-yloxy)pyridin-2-yl)propoxy)benzamide] stands less than 100 nM.
